Measurements reported in patent US9321808B2, “Homo- and heterodimeric SMAC mimetic compounds as apoptosis inducers” (BioNTech AG, priority 2012, dated 2016).
pIC50: −log10 of the molar value. Like-named read-outs stand apart in the source and are kept apart here.

Experiments:
[1] = tested on: MDA-MB-231 (breast epithelial adenocarcinoma); test: Standalone cytotoxicity, MTT assay, MDA-MB-231; type: cell-based, human; conditions: reported as activity range, read-out: MDA-MB-231 IC50 (μM ± standard Deviation)
Description: (§1) Human cell lines MDA-MB-231 (breast epithelial adenocarcinoma), HL-60 (promieloblast cells) and PC-3 (prostate adenocarcinoma cells) were purchased from Istituto Zooprofilattico di Brescia (www.bs.izs.it). Reagents for cell culture were purchased from Sigma, unless otherwise indicated. Cells were grown on Plastic Petri dishes (Falcon) in RPMI 1640 medium supplemented with 2 mM L-glutamine, Penicillin (100 U/mL)/Streptomicin (100 μg/mL), 10% Fetal Bovine Serum. A sub-cultivation ratio of 1:4 was used. Cells were maintained at 37° C. in an atmosphere of 95% air and 5% CO2.
(§2) Cells were seeded in 96-well flat bottom cell culture plates at a density of 5000 cells/well in 100 μL of culture medium. HL-60 cells were immediately stimulated with the indicated compounds for 96 hours in the incubator. MDA-MB-231 and PC-3 cells were allowed to adhere for 24 hours. prior to be exposed to the compounds for 96 hours in the incubator. Cells were exposed to the following concentrations of the compounds: 50 nM, 100 nM, 200 nM, 500 nM, 1 μM, 5 μM, 10 μM, 50 μM and 100 μM. Each point was done in triplicate. The cellular growth inhibitory effect of our compounds was evaluated using the MTT assay (Sigma). After 96 hours of treatment, 10 μL of MTT reagent solution (5 mg of MTT powder/mL diluted in Phosphate Buffer Salt saline solution) were added in each well and allowed to react for 3 hours in the incubator. After 3 hours cells were solubilized in Lysis Buffer (10% SDS/0.1% HCl in water, 100 μL for each well) for 24 hours at 37° C. Finally, the absorbance was measured at 570 nm using a multiplate reader. Absorbance values were collected and IC50 values were determined using GraphPad Prism5 software. The experiments were repeated twice.
(§3) After 96 hours of treatment, 10 μl of MTT reagent solution (5 mg of MTT powder/ml diluted in Phosphate Buffer Salt saline solution) were added in each well and allowed to react for 3 hours in the incubator. After 3 hours cells were solubilized in Lysis Buffer (10% SDS/0.1% HCl in water, 100 μl for each well) for 24 hours at 37° C. Finally, the absorbance was measured at 570 nm using a multiplate reader. Absorbance values were collected and IC50/IC80 values were determined using GraphPad Prism5 software.

[2] = molecular target: T1, cIAP2-BIR3 (Homo sapiens, UniProt Q13489); test: Fluorescence polarization binding, cIAP2 BIR3
T1 construct: 6xHis (C); made in house; host or cells: Escherichia coli BL21(DE3)
T1 sequence (Q13489 237-349): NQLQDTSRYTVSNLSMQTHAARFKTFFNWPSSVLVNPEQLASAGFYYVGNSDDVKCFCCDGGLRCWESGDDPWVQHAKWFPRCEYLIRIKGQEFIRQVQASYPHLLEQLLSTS
Description: (§4) The plasmids were used to transform Escherichia coli strain BL21(DE3). The recombinant proteins were purified using Ni-NTA (His-trap FFcrude, Ge-Healthcare), followed by gel filtration (Superdex 200, Ge-Healthcare). The recombinant proteins were eluted in 20 mM Tris pH 8.0, 250 mM NaCl and 10 mM DTT. Aliquoted proteins were conserved at −80° C.
(§5) The fluorescently-labelled Smac peptide (AbuRPF-K(5-Fam)-N1-12, final concentration of 2 nM), and increasing concentrations of cIAP1- and cIAP2-BIR3 from 0 to 20 μM, were added to an assay buffer consisting of 100 mM potassium phosphate, pH 7.5, 100 μg/ml bovine γ-globulin, 0.02% sodium azide. […] All experiments were performed in black, flat-bottom 96-well microplates (Greiner bio-one). 4-substituted azabicyclo[5.3.0]alkane Smac-mimetics were evaluated for their ability to displace the fluorescent probe from recombinant protein. […] After 15 minutes mixing on a shaker, and 3 hours incubation at room temperature, fluorescent polarization was measured on the Ultra plate reader (Tecan).

[3] = molecular target: T2, human XIAP BIR3 domain (Homo sapiens, UniProt P98170); test: Fluorescence polarization competitive binding, XIAP BIR3; conditions: displacement of FITC-SMAC probe from XIAP BIR3-His-tag (60 nM); average of three independent measurements
T2 construct: human XIAP BIR3 domain from residue 241 to 356; made in house; host or cells: Escherichia coli BL21
T2 sequence (P98170 241-356): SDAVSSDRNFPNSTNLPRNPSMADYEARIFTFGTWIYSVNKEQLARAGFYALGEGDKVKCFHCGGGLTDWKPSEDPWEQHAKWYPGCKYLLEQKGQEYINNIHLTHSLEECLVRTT
Description: (§6) Data were analyzed using Prism 4.0 software (Graphpad Software).

[4] = molecular target: T3, human XIAP linker-BIR2-BIR3 (Homo sapiens, UniProt P98170); test: Fluorescence polarization competitive binding, XIAP linker-BIR2-BIR3; conditions: displacement of SMAC-1F probe (1 nM) from XIAP linker-BIR2-BIR3-His-tag (3 nM); average of three independent measurements
T3 construct: human XIAP from residue 124 to 356 (linker-BIR2-BIR3); made in house; host or cells: Escherichia coli BL21
T3 sequence (P98170 124-356): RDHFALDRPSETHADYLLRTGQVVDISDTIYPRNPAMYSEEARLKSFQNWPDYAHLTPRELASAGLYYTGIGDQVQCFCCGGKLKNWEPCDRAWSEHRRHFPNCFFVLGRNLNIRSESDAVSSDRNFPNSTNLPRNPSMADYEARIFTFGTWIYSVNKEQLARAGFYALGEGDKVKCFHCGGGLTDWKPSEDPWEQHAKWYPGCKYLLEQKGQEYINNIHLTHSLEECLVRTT
Description: as §6

[5] = molecular target: T4, cIAP1-BIR3 (Homo sapiens, UniProt Q13490); test: Fluorescence polarization binding, cIAP1 BIR3; conditions: displacement of fluorescent probe (2 nM) from cIAP1-BIR3 (10 nM); average of three independent measurements; read-out: cIAP1 IC50(av)
T4 construct: 6xHis (C); made in house; host or cells: Escherichia coli BL21(DE3)
T4 sequence (Q13490 251-363): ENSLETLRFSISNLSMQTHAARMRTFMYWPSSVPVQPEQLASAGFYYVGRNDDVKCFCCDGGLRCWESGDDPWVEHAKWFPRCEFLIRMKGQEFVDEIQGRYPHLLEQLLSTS
Description: as §4, §5

[6] = tested on: IGROV-1 human ovarian carcinoma xenografted s.c.; conditions: for TVI %, tumor volume inhibition % in treated over control mice: assessed 7 days after last treatment
Description: (§7) All experiments of antitumor activity were carried out using female athymic Swiss nude mice, 8-10 weeks-old (Charles River, Calco, Italy). Mice were maintained in laminar flow rooms keeping temperature and humidity constant. Mice had free access to food and water. Experiments were approved by the Ethics Committee for Animal Experimentation of the Istituto Nazionale Tumori of Milan according to institutional guidelines.
(§8) Chem. Soc. […] The drugs were delivered i.p. in a volume of 10 ml/Kg of body weight.
For subcutaneous (s.c.) growth, exponentially growing tumor cells (5×10^6 cells/mouse) were s.c. injected into the right flank of athymic nude mice. The tumor line was achieved by serial s.c. passages of fragments (about 2×2×6 mm) from regrowing tumors into healthy mice. Groups of five mice bearing bilateral s.c. tumors were employed. Tumor fragments were implanted on day 0 and tumor growth was followed by biweekly measurements of tumor diameters with a Vernier caliper. […] Treatment started three days after tumor implant, when tumors were just palpable. […] The toxicity of the drug treatment was determined as body weight loss and lethal toxicity. Deaths occurring in treated mice before the death of the first control mouse were ascribed to toxic effects. Student t test (two tailed) exact test was used for statistical comparison of tumor volumes in mice.

[7] = tested on: HL-60 (promieloblast cells); test: Standalone cytotoxicity, MTT assay, HL-60; type: cell-based, human; conditions: reported as activity range, read-out: HL-60 IC50 (μM ± standard Deviation)
Description: as §1
as §2, with “The experiments were repeated twice.” left out
as §3, with “After 3 hours cells were solubilized in Lysis Buffer (10% SDS/0.1% HCl in water, 100 μl for each well) for 24 hours at 37° C.” left out

[8] = tested on: PC-3 (prostate adenocarcinoma cells); test: Standalone cytotoxicity, MTT assay, PC-3; type: cell-based, human; conditions: 96 hours treatment, reported as activity range, read-out: PC-3 IC50 (μM ± standard Deviation)
Description: as §1
as §2, with “The experiments were repeated twice.” left out
as §3, with “After 3 hours cells were solubilized in Lysis Buffer (10% SDS/0.1% HCl in water, 100 μl for each well) for 24 hours at 37° C.” left out

[9] = tested on: IGROV-1 human ovarian carcinoma xenografted i.p.; test: Ovarian tumor i.p. xenograft, survival; type: in vivo, athymic nude mice; conditions: 5 mg/kg, qdx4-5/wx2-3w, IGROV-1 i.p.
Description: as §7, §8
The IGROV-1 tumor was adapted to grow in the peritoneal cavity (i.p.) and maintained by serial i.p. passages of ascitic cells into healthy mice. In this tumor model, hemorrhagic ascites with diffuse peritoneal carcinomatosis develops and the animal eventually die. For evaluation of antitumor activity, 2.5×10^6 ascitic cells in 0.2 ml of saline were injected i.p. into mice. Locoregional administration was employed. […] For antitumor activity studies, experimental groups were inspected daily and weighed three times weekly. Prior to impending death, mice were sacrificed by cervical dislocation and day of sacrifice was considered as day of death and the median survival time (MST) was calculated for each group. Antitumor activity was assessed as T/C %, i.e., the ratio of MST in treated mice over that of control mice×100. For statistical analysis, percent survivorship over time was estimated by the Kaplan-Meier product method and compared using the log-rank test.
Treatment started the day after tumor cell inoculation.

[10] = Homo sapiens, MDA-MB-231, 96 hours treatment
[11] = displacement of fluorescent probe (2 nM) from cIAP2 (25 nM), average of three independent measurements, read-out: cIAP2 IC50(av)
[12] = Homo sapiens, HL-60, 96 hours treatment
[13] = i.p., 5 mg/kg, qdx4-5/wx3w, IGROV-1 s.c.

## CC[C@H](NC)C(=O)N[C@@H]1C(=O)N2[C@@H](CC[C@@H]1CNC(=O)COCC(=O)NCCOCCOCCOCCNC(=O)[C@@H](NC(=O)[C@@H]1CC[C@@H]3CC[C@H](CO)[C@H](NC(=O)[C@H](CC)NC)C(=O)N31)c1ccccc1)CC[C@H]2C(=O)NC(c1ccccc1)c1ccccc1 [Compound 36a]
[1]; [10]
  IC50: 1 to 10 µM
[2]; [11]
  pIC50: 9.70

## CC[C@H](NC)C(=O)N[C@@H]1C(=O)N2[C@@H](CC[C@@H]1Cn1cc(CCC(=O)NCCOCCOCCOCCNC(=O)[C@@H](NC(=O)[C@@H]3CC[C@@H]4CC[C@H](CO)[C@H](NC(=O)[C@H](CC)NC)C(=O)N43)c3ccccc3)nn1)CC[C@H]2C(=O)NC(c1ccccc1)c1ccccc1 [Compound 35a]
[1]; [10]
  IC50: 1 to 10 µM
[2]
  pIC50: 9.40

## CC[C@H](NC)C(=O)N[C@@H]1C(=O)N2[C@@H](CC[C@@H]1CO)CC[C@H]2C(=O)N[C@H](C(=O)NCCCCCCCCNC(=O)[C@@H](NC(=O)[C@@H]1CC[C@@H]2CC[C@H](CO)[C@H](NC(=O)[C@H](CC)NC)C(=O)N21)c1ccccc1)c1ccccc1 [Compound 30a]
[1]; [10]
  IC50: < 1 µM
[2]
  pIC50: 8.74

## CC[C@H](NC)C(=O)N[C@@H]1C(=O)N2[C@@H](CC[C@@H]1CO)CC[C@H]2C(=O)N[C@H](C(=O)NCCCCNc1c(NCCCCNC(=O)[C@@H](NC(=O)[C@@H]2CC[C@@H]3CC[C@H](CO)[C@H](NC(=O)[C@H](CC)NC)C(=O)N32)c2ccccc2)c(=O)c1=O)c1ccccc1 [Compound 30b]
[3]
  pIC50: 7.57
[4]
  pIC50: 9.10
[5]
  pIC50: 8.59
[1]; [10]
  IC50: 10 to 50 µM
[2]; [11]
  pIC50: 8.54

## CN[C@@H](C)C(=O)N[C@H]1CCCC[C@H]2CC[C@@H](C(=O)N[C@@H](c3ccccc3)c3cn(CCCCc4ccc(CCCCn5cc([C@@H](NC(=O)[C@@H]6CC[C@@H]7CCCC[C@H](NC(=O)[C@H](C)NC)C(=O)N76)c6ccccc6)nn5)cc4)nn3)N2C1=O [SM-164, reference compound]
[6]; i.p., 5 mg/Kg, qdx5/wx3, IGROV-1 s.c.
  Antitumor effect: did not display any antitumor effect

## CC[C@H](NC)C(=O)N[C@@H]1C(=O)N2[C@@H](CC[C@@H]1CO)CC[C@H]2C(=O)N[C@H](C(=O)NCCCOCCOCCOCCCNC(=O)[C@@H](NC(=O)[C@@H]1CC[C@@H]2CC[C@H](CO)[C@H](NC(=O)[C@H](CC)NC)C(=O)N21)c1ccccc1)c1ccccc1 [Compound 30d]
[7]; [12]
  IC50: 10 to 50 µM
[1]; [10]
  IC50: 10 to 50 µM
[2]; [11]
  pIC50: 8.66
[8]; Homo sapiens
  IC50: > 50 µM

## CC[C@H](NC)C(=O)N[C@@H]1C(=O)N2[C@@H](CC[C@@H]1CO)CC[C@H]2C(=O)N[C@H](C(=O)NCCNC(=O)CCC#CC#CCCC(=O)NCCNC(=O)[C@@H](NC(=O)[C@@H]1CC[C@@H]2CC[C@H](CO)[C@H](NC(=O)[C@H](CC)NC)C(=O)N21)c1ccccc1)c1ccccc1 [Compound 30c]
[1]; [10]
  IC50: 10 to 50 µM

## CC[C@H](NC)C(=O)N[C@@H]1C(=O)N2[C@@H](CC[C@@H]1CO)CC[C@H]2C(=O)N[C@@H](c1ccccc1)c1cn(CCCCc2ccc(CCCCn3cc([C@@H](NC(=O)[C@@H]4CC[C@@H]5CC[C@H](CO)[C@H](NC(=O)[C@H](CC)NC)C(=O)N54)c4ccccc4)nn3)cc2)nn1 [Compound 28a]
[6]; i.p., 5 mg/Kg, qdx5/wx3
  Tolerability: well tolerated
[6]; i.p., 5 mg/kg, qdx4-5/wx3w
  Tox, dead/treated mice: 0/4
[6]; [13]
  TVI %, tumor volume inhibition % in treated over control mice: 66%
[6]; i.p., 5 mg/kg, qdx4-5/wx3w, the highest change is reported
  BWL %, body weight loss % induced by treatment: 2%
[7]; [12]
  IC50: < 1 µM
[1]; [10]
  IC50: < 1 µM
[9]
  MST, median survival time: 36 days
  Range of the days of death: 28 to 56 days
[2]
  pIC50: 8.60
[8]; Homo sapiens
  IC50: > 50 µM

## CC[C@H](NC)C(=O)N[C@@H]1C(=O)N2[C@@H](CC[C@@H]1CNCc1ccccc1)CC[C@H]2C(=O)N[C@@H](c1ccccc1)c1cn(CCCCc2ccc(CCCCn3cc([C@@H](NC(=O)[C@@H]4CC[C@@H]5CC[C@H](CNCc6ccccc6)[C@H](NC(=O)[C@H](CC)NC)C(=O)N54)c4ccccc4)nn3)cc2)nn1 [Compound 29a]
[1]; [10]
  IC50: < 1 µM
[2]
  pIC50: 7.92

## CN[C@@H](C)C(=O)N[C@H]1CCCC[C@H]2CC[C@@H](C(=O)N[C@@H](c3ccccc3)c3cn(CCCCc4ccc(CCCCn5cc([C@@H](NC(=O)[C@@H]6CC[C@@H]7CCCC[C@H](NC(=O)[C@H](C)NC)C(=O)N76)c6ccccc6)nn5)cc4)nn3)N2C1=O [SM164, reference compound]
[6]; [13]
  TVI %, tumor volume inhibition % in treated over control mice: 0%
[6]; mouse, in vivo, ip, 5 mg/kg
  BWL %, body weight loss % induced by treatment: 5%
[7]; 96 hours treatment
  IC50: < 1 µM
[5]
  pIC50: 9.34
[1]; 96 hours treatment
  IC50: < 1 µM
[9]
  MST, median survival time: 37 days
  Range of the days of death: 24 to 49 days
[8]
  IC50: 10 to 50 µM
